Source: PubChem BioAssay (NCI)
Values joined by “and” are separate entries in the source; they are usually repeats but may differ in a detail not shown here. Equal values may be shown once.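 Briefly, cells in 96-well plates were exposed to five compound concentrations for 48 h, and endpoints were estimated by linear interpolation. Abbreviation: GI50, concentration required for 50% inhibition of growth. At the TGI there is no net growth.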

How the values were obtained:
Assay in all cases: growth of human tumour cells (NCI), 48 h
[1] = tested on: UO-31 renal
[2] = tested on: SK-MEL-2 melanoma
[3] = tested on: CAKI-1 renal
[4] = tested on: SN12C renal
[5] = tested on: MDA-MB-231 breast
[6] = tested on: HCT-15 colon
[7] = tested on: SW-620 colon
[8] = tested on: DU-145 prostate
[9] = tested on: PC-3 prostate
[10] = tested on: TK-10 renal

| SMILES | GI50 [1] | TGI [1] | TGI [2] | GI50 [3] | TGI [3] | GI50 [4] | TGI [4] | GI50 [5] | GI50 [6] | TGI [6] | GI50 [7] | TGI [7] | GI50 [8] | TGI [8] | GI50 [9] | TGI [9] | TGI [10] | GI50 [2] | TGI [5] | GI50 [10] |
| --- | --- | --- | --- | --- | --- | --- | --- | --- | --- | --- | --- | --- | --- | --- | --- | --- | --- | --- | --- | --- |
| CCN(CC)CCCC(C)Nc1c2ccc(Cl)cc2nc2ccc(OC)cc12 (stereo not drawn) | 1.52 µM | 3.12 µM and 5.49 µM | 3.17 µM | 1.99 µM | 4.37 µM and 4.5 µM | 1.59 µM | 7.16 µM and 9.28 µM | 0.968 µM | 1.61 µM | 7.18 µM and 5.67 µM | 1.18 µM | 8.55 µM and 4.35 µM | 2.28 µM | 6.37 µM | 2.24 µM | 9.19 µM and 5.73 µM | 11.8 µM and 13 µM |  |  |  |
| COc1ccc(NC(=O)C(=O)C(C(=O)c2ccccc2)C2OC(=O)c3ccccc32)c([N+](=O)[O-])c1 (stereo not drawn) |  | > 100 µM | > 100 µM |  | > 100 µM |  | > 100 µM |  |  | > 100 µM |  | > 100 µM |  |  |  |  | > 100 µM |  |  |  |
| NC(=O)C(=Cc1ccc(C(O)P(=O)(O)O)cc1)C(N)=O (stereo not drawn) |  | > 100 µM | > 100 µM |  | > 100 µM |  | > 100 µM |  |  | > 100 µM |  | > 100 µM |  |  |  |  | > 100 µM |  |  |  |
| Cc1[nH]c2ccccc2c1C1Cc2ccccc2N1C(=O)/C=C\C(=O)O (stereo not drawn) |  | > 100 µM | 39.6 µM |  | > 100 µM |  | > 100 µM |  |  | > 100 µM |  | > 100 µM |  |  |  |  | > 100 µM |  |  |  |
| NOCC(=O)O | > 100 µM | > 100 µM | > 100 µM | > 100 µM | > 100 µM | > 100 µM | > 100 µM | 53.2 µM | > 100 µM | > 100 µM | > 100 µM | > 100 µM | > 100 µM | > 100 µM | > 100 µM | > 100 µM | > 100 µM | > 100 µM | > 100 µM | > 100 µM |
| O=C(Nc1cc(Cl)c(Cl)cc1Cl)C(=O)C1C=CCS1(=O)=O (stereo not drawn) |  | > 100 µM | > 100 µM |  | > 100 µM |  | > 100 µM |  |  | > 100 µM |  | > 100 µM |  |  |  |  | > 100 µM |  |  |  |
| CC(=O)CC(=O)Nc1ccc2ccccc2c1 |  |  | > 100 µM |  | > 100 µM |  | > 100 µM |  |  | > 100 µM |  | > 100 µM |  | > 100 µM |  | > 100 µM | > 100 µM |  | > 100 µM |  |
| COc1cc(OC)cc(C2CC(=O)Nc3c2c(C)nn3-c2nc3ccccc3[nH]2)c1 (stereo not drawn) | 3.22 µM | 11.4 µM | 5.88 µM | 3.36 µM | 11 µM | 3.46 µM | > 100 µM | 3.66 µM | 3.73 µM | > 100 µM | 3.31 µM | 12.9 µM | 3.73 µM | 17.1 µM | 3.09 µM | 41.7 µM | 45.5 µM | 2.42 µM | > 100 µM | 3.04 µM |
| CC(=O)[O-].CC(=O)[O-].[Pt+2].c1cscn1.c1cscn1 | > 100 µM | > 100 µM | > 100 µM | > 100 µM | > 100 µM | > 100 µM | > 100 µM | > 100 µM | 77.5 µM | > 100 µM | 47.5 µM | > 100 µM | 22.9 µM | > 100 µM | > 100 µM | > 100 µM | > 100 µM | > 100 µM | > 100 µM | > 100 µM |
| CCC1(CC)C(=O)OC(=O)C1(CC)CC |  | > 100 µM | > 100 µM |  | > 100 µM |  |  |  |  | > 100 µM |  | > 100 µM |  | > 100 µM |  | > 100 µM | > 100 µM |  | > 100 µM |  |
| Cc1c(NC(=O)C(C)(C)Br)c(=O)oc2c(C)c3occc(=O)c3cc12 |  | 76.2 µM | > 100 µM |  |  |  | > 100 µM |  |  | > 100 µM |  | > 100 µM |  |  |  |  | > 100 µM |  |  |  |
| CC(=O)OCC1OC(N2C(=O)C(=O)c3cc(C)ccc32)C(OC(C)=O)C(OC(C)=O)C1OC(C)=O (stereo not drawn) |  | > 100 µM | > 100 µM |  | > 100 µM |  | > 100 µM |  |  | > 100 µM |  | > 100 µM |  |  |  |  | > 100 µM |  |  |  |
| O=S(=O)(N/N=C/c1ccc(/C=N/NS(=O)(=O)c2ccccc2)cc1)c1ccccc1 |  | > 100 µM | > 100 µM |  |  |  | > 100 µM |  |  | > 100 µM |  |  |  |  |  |  | > 100 µM |  |  |  |
| O=[N+]([O-])c1cc(Cl)c(Cl)c([N+](=O)[O-])c1Cl | 1.17 µM | 2.45 µM | 3.37 µM | 0.184 µM | 0.36 µM |  |  | 1.81 µM | 1 µM | 2.84 µM | 0.763 µM | 3.36 µM | 1.63 µM | 2.99 µM | 1.81 µM | 3.57 µM | 2.99 µM | 1.8 µM | 3.79 µM | 1.53 µM |
| CCOC(=O)NC(=O)c1cn(CC(=O)NCC(=O)NCC(=O)NCCCN2CCN(CCCNC(=O)CNC(=O)CNC(=O)Cn3cc(C(=O)NC(=O)OCC)c(=O)[nH]c3=O)CC2)c(=O)[nH]c1=O |  | > 100 µM | > 100 µM |  | > 100 µM |  | > 100 µM |  |  | > 100 µM |  | > 100 µM |  |  |  |  | > 100 µM |  |  |  |
| CC1=C(C(=O)Nc2ccccc2C)C(c2ccc(Cl)c(Cl)c2)C(C(=O)Nc2ccccc2C)=C(C)N1 |  | > 100 µM | 33.6 µM |  | > 100 µM |  | 47.2 µM |  |  | 47.2 µM |  | > 100 µM |  |  |  |  | > 100 µM |  |  |  |
| CCCCCCCCC[C@@H]1CC(=O)OCC2OC(O[C@H](CCCCCCCCC)CC(=O)OCC3OC(O[C@H](CCCCCCCCC)CC(=O)OCC4OC(O1)C(O)C(O)C4O)C(O)C(O)C3O)C(O)C(O)C2O (stereo partly drawn) |  | 24.6 µM | 22.3 µM |  | 14.9 µM |  | 28 µM |  |  | 21 µM |  | 17.8 µM |  |  |  |  | 23.1 µM |  |  |  |
| Cc1cc(C)c([O-])c(CN(C)CCN(C)Cc2cc(C)cc(C)c2[O-])c1.O=C([O-])c1cccc(C(=O)[O-])n1.[Ti+4] | 2.26 µM | > 100 µM |  | 3.93 µM | > 100 µM | 3.69 µM | > 100 µM | 3.42 µM | 3.5 µM | > 100 µM | 2.89 µM | > 100 µM | 4.57 µM | > 100 µM | 2.7 µM | > 100 µM | 5.47 µM |  | > 100 µM | 1.71 µM |
